Measurements as given in PubChem BioAssay (NCI).
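These data come from cells grown in 96-well plates and exposed to compound for 48 hours at five concentrations. At the TGI there is no net growth.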

What was measured:
Assay in all cases: NCI tumour cell line growth inhibition, 48 h
[1] = tested on: HCT-15 colon
[2] = tested on: HL-60(TB) leukemia
[3] = tested on: 786-0 renal
[4] = tested on: U251 CNS
[5] = tested on: NCI-H23 lung
[6] = tested on: OVCAR-3 ovarian
[7] = tested on: UACC-257 melanoma
[8] = tested on: HOP-92 NSCLC
[9] = tested on: A498 renal

`CC(=O)OC[C@]1(C)CCCC2(C)C1CCC1C=C(C)[C@H]3CCC12C3` (stereo partly specified) was tested, and the TGI [1] was > 100 µM, the TGI [2] was > 100 µM and the TGI [3] was > 100 µM. For the same molecule, the TGI [4] was > 100 µM, the TGI [5] was > 100 µM and the TGI [6] was > 100 µM. The TGI [7] was > 100 µM.
`O=C1Cc2c([nH]c3ccccc23)-c2ccccc2N1` was tested, and the TGI [1] was > 100 µM, the TGI [8] was > 100 µM and the TGI [2] was > 100 µM. The TGI [3] was > 100 µM, the TGI [9] was > 100 µM and the TGI [4] was > 100 µM. For the same molecule, the TGI [5] was 61.1 µM, the TGI [6] was 68.2 µM and the TGI [7] was > 100 µM.
In the case of `CCN(CC)CCCNC(=O)C1COc2cc(-c3cc(=O)c4ccccc4o3)ccc2O1` (stereo unspecified), the TGI [1] is reported as > 100 µM, the TGI [8] is reported as > 100 µM and the TGI [2] is reported as > 100 µM. The TGI [3] was > 100 µM, the TGI [9] was > 100 µM and the TGI [4] was > 100 µM. For the same molecule, the TGI [5] was > 100 µM, the TGI [6] was > 100 µM and the TGI [7] was 50.1 µM.
For `Cc1nc(C(N)=S)sc1C(=O)CC(=O)C(=O)Nc1ccccc1[N+](=O)[O-]`, the TGI [1] was > 100 µM, the TGI [8] was > 100 µM and the TGI [2] was > 100 µM. The TGI [3] was > 100 µM, the TGI [9] was > 100 µM and the TGI [4] was > 100 µM. The TGI [5] was > 100 µM, the TGI [6] was > 100 µM and the TGI [7] was > 100 µM.
`CCOC(=O)/C(=C\c1ccc(N(CCC#N)CCC#N)cc1)NC(=O)c1cc([N+](=O)[O-])ccc1Cl` was tested, and the TGI [1] was > 100 µM, the TGI [2] was > 100 µM and the TGI [3] was > 100 µM. The TGI [9] was > 100 µM, the TGI [4] was > 100 µM and the TGI [5] was > 100 µM. For the same molecule, the TGI [6] was > 100 µM and the TGI [7] was > 100 µM.
With `CN1CC(=O)N(C)c2ncn(Cc3ccccc3)c2C1=O` the TGI [1] was > 100 µM, the TGI [2] was > 100 µM and the TGI [3] was > 100 µM. For the same molecule, the TGI [9] was > 100 µM, the TGI [4] was > 100 µM and the TGI [5] was > 100 µM. The TGI [6] was > 100 µM.
`COc1ccccc1C(O)(c1ccccc1)C(O)(c1ccccc1)c1ccccc1OC` (stereo unspecified) was tested, and the TGI [1] was > 100 µM, the TGI [8] was > 100 µM and the TGI [2] was > 100 µM. For the same molecule, the TGI [3] was > 100 µM, the TGI [9] was > 100 µM and the TGI [4] was > 100 µM. For the same molecule, the TGI [5] was > 100 µM, the TGI [6] was > 100 µM and the TGI [7] was > 100 µM.
In the case of `Cc1ccc(N2C(=O)C=C(C3=C(O)C(=O)N(c4ccc(C)cc4)C3=O)C2=O)cc1`, the TGI [1] is reported as > 100 µM, the TGI [8] is reported as > 100 µM and the TGI [2] is reported as > 100 µM. For the same molecule, the TGI [3] was > 100 µM, the TGI [9] was > 100 µM and the TGI [4] was > 100 µM. For the same molecule, the TGI [5] was > 100 µM, the TGI [6] was > 100 µM and the TGI [7] was > 100 µM.
`CC(=O)NC1=C(NC(C)(C)C)C(=O)c2ccccc2C1=O` gave a TGI [1] of 34.5 µM, a TGI [8] of 34.6 µM and a TGI [2] of 5.6 µM. The TGI [3] was 11.6 µM, the TGI [9] was 50.2 µM and the TGI [4] was > 100 µM. The TGI [5] was 35.2 µM, the TGI [6] was 33.1 µM and the TGI [7] was 29.4 µM.
